Measurements: PMC8854719, “Phase 1A/1B dose-escalation and -expansion study to evaluate the safety, pharmacokinetics, food effects and antitumor activity of pamiparib in advanced solid tumours” (British Journal of Cancer, 2021)
Where “and” joins values, the source holds several entries; their conditions need not be identical. Identical values can stand only once.

Columns and labels:
[1] = system: epithelial ovarian cancer (EOC); experiment: Tumour response and PFS per RECIST v1.1, EOC efficacy-evaluable population; type: in vivo, human
Experimental: (§1) Tumour response was evaluated by RECIST v1.1. For patients with ovarian cancer, tumour response was assessed per RECIST v1.1 and by Gynecologic Cancer Intergroup (GCIG) CA-125 criteria. Tumour response for patients with prostate cancer was assessed by Prostate Cancer Clinical Trials Working Group 2 (PCWG2) criteria. Objective response rate (ORR) was defined as the proportion of patients achieving a confirmed complete response (CR) or partial response (PR) on study treatment. Blood tumour antigens (e.g., carcinoembryonic antigen for colorectal cancer, CA-125 for ovarian cancer and prostate-specific antigen [PSA] for mCRPC) were assessed during screening, every 6 weeks after the first pamiparib dose in the first 12 months, and every 9 weeks thereafter.
Analyses of ORR (95% confidence interval [CI]) by investigator assessment were performed using predefined subgroups of the EOC population, including age group (<65 years versus ≥65 years), baseline ECOG performance status (0 versus 1), solid tumour stage (Stage III versus IV), BRCA/HRD status (germline BRCA mutation versus wild-type or unknown; germline or somatic BRCA mutation versus wild-type or unknown; HRD-positive versus negative or unknown), and platinum response status (platinum-sensitive versus platinum-resistant versus platinum-refractory).
(§2) The safety population comprised all patients in the dose-escalation and dose-expansion phases who received at least one dose of pamiparib (Supplementary Table S2). Patients in the safety analysis set for whom valid pamiparib PK parameters were estimated and for whom evaluable PD results were available represented the PK population and the PD population, respectively. The efficacy-evaluable population included patients in the safety analysis set who had at least one evaluable postbaseline tumour assessment or those who discontinued due to clinical disease progression or early death before tumour assessment could be performed. The EOC efficacy-evaluable population was a subset of the overall efficacy-evaluable population that included patients with EOC from both the dose-escalation and dose-expansion phases. Patients in the dose-expansion phase without measurable disease at baseline per RECIST v1.1 were excluded from the efficacy-evaluable population.
Descriptive statistics were used to summarise all study data (see Supplemental Appendix). Progression-free survival (PFS) and event-free rates were estimated using the Kaplan–Meier method along with the corresponding 95% CI. Pharmacokinetic parameters were derived using standard non-compartmental methods with Phoenix WinNonlin Version 6.4 or higher (Pharsight Corp., Mountain View, California).

[2] = system: ovarian cancer; conditions: Phase 1 study in China (NCT03333915), high-grade ovarian cancer refractory or resistant to platinum; cited from earlier work
[3] = system: BRCA1-mutant breast cancer xenograft model; parameters: method as in PMID 32652442; conditions: cited from earlier work
[4] = Phase 1 portion of NCT03333915, patients in China; cited from earlier work
[5] = system: epithelial ovarian cancer (EOC); experiment: GCIG CA-125 response; type: in vivo, human; conditions: CA-125–evaluable population (n=12)
Experimental: as §1
as §2, with “The EOC efficacy-evaluable population was a subset of the overall efficacy-evaluable population that included patients with EOC from both the dose-escalation and dose-expansion phases. Patients in the dose-expansion phase without measurable disease at baseline per RECIST v1.1 were excluded from the efficacy-evaluable population.” left out

[6] = system: metastatic castration-resistant prostate cancer (mCRPC); experiment: PCWG2 response and PSA progression; type: in vivo, human
Experimental: as §1, §2

[7] = EOC, Total QD Dosage Group (n=9)
[8] = Total BID dosage group, EOC efficacy-evaluable (n = 51)

**Q.** For C[C@]12CCCN1CC1=NNC(=O)c3cc(F)cc4[nH]c2c1c34 [pamiparib], which “Best overall response: Not evaluable” value ([1]; EOC, Total BID and QD (N=60)) is on record?
**A.** 2 (3.3) n (%)

**Q.** And the “Best overall response: Partial response” value ([1]; EOC, Total BID and QD (N=60))?
**A.** 19 (31.7) n (%)

**Q.** And the “Best overall response: Progressive disease” value ([1]; EOC, Total BID and QD (N=60))?
**A.** 2 (3.3) n (%)

**Q.** And the “Best overall response: Stable disease” value ([1]; EOC, Total BID and QD (N=60))?
**A.** 30 (50.0) n (%)

**Q.** And the Clinical benefit rate ([1]; EOC, Total BID and QD (N=60))?
**A.** 51.7 (38.39-64.77) % (95% CI)

**Q.** What about the Disease control rate ([1]; EOC, Total BID and QD (N=60)) of the same molecule?
**A.** 88.3 (77.43-95.18) % (95% CI)

**Q.** And the Objective response rate ([1]; EOC, Total BID and QD (N=60))?
**A.** 38.3 (26.07-51.79) % (95% CI)

**Q.** What about the “Best overall response: Complete response” value [1, 7] of the same molecule?
**A.** 0 (0) n (%)

**Q.** And the “Best overall response: Not assessed” value [1, 7]?
**A.** 0 (0) n (%)

**Q.** What about the “Best overall response: Not evaluable” value [1, 7] of the same molecule?
**A.** 1 (11.1) n (%)

**Q.** And the “Best overall response: Partial response” value [1, 7]?
**A.** 2 (22.2) n (%)

**Q.** And the “Best overall response: Progressive disease” value [1, 7]?
**A.** 0 (0) n (%)

**Q.** And the “Best overall response: Stable disease” value [1, 7]?
**A.** 6 (66.7) n (%)

**Q.** What about the Clinical benefit rate [1, 7] of the same molecule?
**A.** 33.3 (7.49-70.07) % (95% CI)

**Q.** What about the Disease control rate [1, 7] of the same molecule?
**A.** 88.9 (51.75-99.72) % (95% CI)

**Q.** What about the “ORR, subgroup Age <65” value [1, 7] of the same molecule?
**A.** 20.0 (0.51-71.64) [5/9] % (95% CI)

**Q.** What about the “ORR, subgroup Age ≥65” value [1, 7] of the same molecule?
**A.** 25.0 (0.63-80.59) [4/9] % (95% CI)

**Q.** And the “ORR, subgroup Baseline ECOG performance status 0” value [1, 7]?
**A.** 0.0 (0.00-97.50) [1/9] % (95% CI)

**Q.** What about the “ORR, subgroup Baseline ECOG performance status ≥1” value [1, 7] of the same molecule?
**A.** 25.0 (3.19-65.09) [8/9] % (95% CI)

**Q.** And the “ORR, subgroup Germline BRCA status Mutant” value [1, 7]?
**A.** 33.3 (0.84-90.57) [3/9] % (95% CI)

**Q.** And the “ORR, subgroup Germline BRCA status Wild-type/Unknown” value [1, 7]?
**A.** 16.7 (0.42-64.12) [6/9] % (95% CI)

**Q.** What about the “ORR, subgroup Germline or somatic BRCA status Mutant” value [1, 7] of the same molecule?
**A.** 33.3 (0.84-90.57) [3/9] % (95% CI)

**Q.** And the “ORR, subgroup Germline or somatic BRCA status Wild-type/Unknown” value [1, 7]?
**A.** 16.7 (0.42-64.12) [6/9] % (95% CI)

**Q.** And the “ORR, subgroup HRD status Negative/Unknown” value [1, 7]?
**A.** 20.0 (0.51-71.64) [5/9] % (95% CI)

**Q.** And the “ORR, subgroup HRD status Positive” value [1, 7]?
**A.** 25.0 (0.63-80.59) [4/9] % (95% CI)

**Q.** What about the “ORR, subgroup Platinum-sensitivity status Sensitive” value [1, 7] of the same molecule?
**A.** 66.7 (9.43-99.16) [3/9] % (95% CI)

**Q.** What about the “ORR, subgroup Solid tumor stage 3” value [1, 7] of the same molecule?
**A.** 0.0 (0.00-52.18) [5/9] % (95% CI)

**Q.** What about the “ORR, subgroup Solid tumor stage 4” value [1, 7] of the same molecule?
**A.** 50.0 (1.26-98.74) [2/9] % (95% CI)

**Q.** And the Objective response rate [1, 7]?
**A.** 22.2 (2.81-60.01) % (95% CI)

**Q.** And the “PFS censored: No disease progression or death” value [1, 7]?
**A.** 2 (22.2) n (%)

**Q.** What about the “PFS censored: No postbaseline assessment” value [1, 7] of the same molecule?
**A.** 0 (0) n (%)

**Q.** And the “PFS censored: ≥2 consecutive missed assessments” value [1, 7]?
**A.** 0 (0) n (%)

**Q.** What about the “PFS events: Death” value [1, 7] of the same molecule?
**A.** 3 (33.3) n (%)

**Q.** And the “PFS events: Disease progression” value [1, 7]?
**A.** 4 (44.4) n (%)

**Q.** And the “PFS: Censored” value [1, 7]?
**A.** 2 (22.2) n (%)

**Q.** And the “PFS: Events” value [1, 7]?
**A.** 7 (77.8) n (%)

**Q.** What about the “Progression-Free Survival, Median” value [1, 7] of the same molecule?
**A.** 4.9 (1.84-NE) months (95% CI)

**Q.** And the “Best overall response: Complete response” value [1, 8]?
**A.** 4 (7.8) n (%)

**Q.** And the “Best overall response: Not assessed” value [1, 8]?
**A.** 3 (5.9) n (%)

**Q.** What about the “Best overall response: Not evaluable” value [1, 8] of the same molecule?
**A.** 1 (2.0) n (%)

**Q.** What about the “Best overall response: Partial response” value [1, 8] of the same molecule?
**A.** 17 (33.3) n (%)

**Q.** What about the “Best overall response: Progressive disease” value [1, 8] of the same molecule?
**A.** 2 (3.9) n (%)

**Q.** What about the “Best overall response: Stable disease” value [1, 8] of the same molecule?
**A.** 24 (47.1) n (%)

**Q.** And the Clinical benefit rate [1, 8]?
**A.** 54.9 (40.3–68.9) % (95% CI) and 54.9 (40.34-68.87) % (95% CI)

**Q.** What about the Disease control rate [1, 8] of the same molecule?
**A.** 88.2 (76.1–95.6) % (95% CI) and 88.2 (76.13-95.56) % (95% CI)

**Q.** What about the Objective response rate [1, 8] of the same molecule?
**A.** 41.2 (27.6–55.8) % (95% CI) and 41.2 (27.58-55.83) % (95% CI)

**Q.** What about the Clinical benefit rate [2] of the same molecule?
**A.** 62.5%

**Q.** And the ORR [2]?
**A.** 25.0%

**Q.** What about the “Efficacy (tumour regression) compared with olaparib” value [3] of the same molecule?
**A.** 16 fold

**Q.** What about the “Anaemia, Grade ≥3” value [4] of the same molecule?
**A.** 27%

**Q.** What about the “GCIG CA-125 response rate” value [5] of the same molecule?
**A.** 83.3%

**Q.** What about the “Median time to CA-125 response” value [5] of the same molecule?
**A.** 1.38 months

**Q.** And the “Median time to PSA progression” value ([6]; PSA-evaluable population (n=6))?
**A.** 4.2 months

**Q.** What about the PSA progression rate ([6]; PSA-evaluable population (n=6)) of the same molecule?
**A.** 33.3%

**Q.** What about the “Responders per PCWG2 criteria (in words)” value ([6]; mCRPC, phase 1B Part A) of the same molecule?
**A.** No patients with mCRPC in phase 1B Part A were considered responders
